Entries after “also recorded” stand apart in the source; their conditions may differ.
Tests used:
[1] = test system: histone tails and transcription factors in J-Lat A1 cells; test: Western blot of global histone modifications and transcription factors; type: cell-based
Source text: FIG. 2 is a series of images and graphs showing that histone crotonylation by sodium crotonate addition re-programs histone tails at the HIV LTR. Panel A illustrates that Na-Cro addition increased global expression of H3K4Cro, H3K4Ac, and H3K18Ac while decreasing H3K27Me3. Panel B illustrates expression of transcription factors after Na-Cro addition in J-Lat Al cells. Panels C-E illustrate that Na-Cro addition re-programmed histone tails at the HIV LTR. Chromatin immunoprecipitation (ChIP) assay was performed by using anti-H3K4Cr, anti-H3K4Ac, and anti-H3K27Me3 antibodies after J-Lat Al cells were treated with 30 mM Na-Cro for 4 hours. PCR primers were specific for the HIV LTR region.
Western Blot Analysis: Western blot analysis was performed by using one million cells treated with LRAs for 6 or 18 hours. Whole cell lysates were prepared using RIPA buffer. Nuclear Extracts were prepared using EPIQUIK™ Total Histone Extraction Kit ([…]™, Farmingdale N.Y.). Antibodies (CELL SIGNALING TECHNOLOGY®, Boston, Mass.) for Cyclin T1, CDK9, CDK9-P, NF-kB, GAPDH, and total H3 were used to detect protein expression under different drug conditions. Antibodies for H3K4Cro (PTM BIOLABS™, Chicago, Ill.), H3K27Me3 (CELL SIGNALING TECHNOLOGY®), H3K4Ac (CELL SIGNALING TECHNOLOGY®), and H3K18Ac (CELL SIGNALING TECHNOLOGY®) were used to measure histone modifications.

ACSS2 = ACSS2 expression in J-Lat A1 cells; type: cell-based; conditions: Na-Cro treatment
Source text: FIG. 3 is a series of graphs showing that suppression of acetyl-CoA synthetase 2 (ACSS2) enzyme disrupts crotonyl-CoA induced reactivation of latent HIV. Panel A illustrates that Na-Cro addition to J-Lat Al cells increased expression of ACSS2 enzyme. **, p<0.01 compared with control treatment. Panel B illustrates expression of ACSS2 after ACSS2 siRNA knockdown in TZM-bl HIV reporter cells. **, p<0.01 compared with control siRNA. Panel C illustrates knockdown of ACSS2 decreased Na-Cro-driven HIV transcription. *, p<0.05 compared with control siRNA. Panels D and E illustrate that pretreatment with ACSS2 inhibitor, AR12, dampens reactivation of latent HIV (see panel D) by inhibition of histone crotonylation (see panel E) at the HIV LTR. **, p<0.01 and ***, p<0.001, compared with control treatment. ##, p<0.01 and ###, p<0.001 compared with Na-Cro treatment.

[2] = test system: T cells in PBMCs from healthy HIV-negative donors; test: Immune activation and checkpoint markers in PBMCs by flow cytometry; type: cell-based, human
Description: PBMCs from healthy HIV-negative donors (n=5) were treated with 100 ng/ml PMA 2 plus 2 μg/ml ionomycin, 30 mM Na-Cro overnight, and analyzed by flow cytometry for the expression of CD4, CD8, HLA-DR, CD69, or PD-1 in CD3+ T cells. Percentage of cells expressing immune activation markers was presented for CD3+ cells (see panel A), CD3+CD4+ T cells (see panel B), and CD3+ CD8+ T cells (see panel C). ***, p<0.001, compared with control after 24 or 72 hour treatment.
It was examined whether induction of histone crotonylation in T cells impacted the level of immune activation in these cells. Peripheral blood mononuclear cells from HIV-negative healthy donors (n=5) were treated with PMA/Ionomycin or Na-Cro for 24 hours or 72 hours. Changes in the immune cell status were examined by measuring the levels of HLA-DR, CD69, and PD-1 in the T cell subsets by flow cytometric analysis (see FIG. 9). […] Instead, it is associated with the suppression of immune activation, which may have a beneficial effect on patient immune function.

J-Lat A1 cells = test: Cellular viability by flow cytometry of live/dead staining; type: cell-based; conditions: Na-Cro 10 mM to 40 mM
Description: An increased concentration of Na-Cro was added in the J-Lat A1 cells, and cellular viability was evaluated by flow cytometry of live/dead staining.

[3] = test system: latent HIV (HIV LTR-driven transcription) in J-Lat A1 cells; type: cell-based
Description: Cell culture: J-Lat Al cells (derived from Jurkat cells harboring HIV LTR-Tat-GFP gene) and U1 cells (promonocytic cell line harboring one copy of HIV genome with defective tat gene) were obtained from NIH AIDS Reagent Program and cultured at 37° C. with 5% CO2 in RPM11640 medium containing 10% FBS and 1% penicillin-streptomycin as previously described (see G. Jiang, et al. PLoS Pathogens 11, e1005066 (2015)).
For inhibiting ACSS2 and crotonylation, cells were pretreated with ACSS2 inhibitor, AR12 (SELLECK CHEMICALS™, Houston, Tex.), for 30 minutes, followed by Na-Cro treatment for 4 or 18 hours.
Real-Time PCR Analysis: HIV gene expression was measured using real-time PCR in J-Lat Al cells treated with LRAs. Total nucleic acid was extracted using RNEASY™ Kit, genomic DNA digested using DNase I and total RNA reverse transcribed using Superscript III to synthesize cDNA. […] […] TAMRA-3′ (SEQ ID NO:3).

[4] = healthy donors n=5, 30 mM Na-Cro

## C/C=C/C(=O)[O-].[Na+] [Na-Cro, sodium crotonate]
[1]; J-Lat A1 cells
  expression of transcription factors involved in HIV transcription: did not alter transcription factors that are involved in HIV transcription except a minor induction of CDK9 protein
[1]; Na-Cro-treated T cells
  global H3K4 acetylation: increased
  global H3K4 crotonylation: increased
  global H3K18 acetylation: increased
  global H3K27 trimethylation: markedly decreased
ACSS2
  increase in ACSS2 expression: 70 fold
[2]; [4]
  HLA-DR expression in CD4+ or CD8+ T cells: inhibited HLA-DR expression at 24 and 72 hours
  PD-1 expression in CD3+ T cells: did not change
  PD-1 expression in CD4+ or CD8+ T cells: did not modulate PD-1 expression
[2]; healthy donors n=5, 30 mM Na-Cro or PMA plus ionomycin, 24 or 72 hours
  HLA-DR expression in CD3+ T cells: suppressed HLA-DR expression at 72 hours post-treatment
J-Lat A1 cells
  cell toxicity: not toxic to immune cells; also recorded: Minimal cell toxicity
[3]; J-Lat A1 and U1 cell cultures
  induction of HIV LTR-driven transcription: dose-dependent manner
[3]; J-Lat A1 cells, 30 mM Na-Cro, 500 nM SAHA, 2 μM GSK343 or 5 μM AZA-dc, RT-qPCR
  reactivation of latent HIV by epigenetic modifiers: comparable capacity to reactivate latent HIV
[3]; J-Lat A1 cells, Na-Cro at 40 mM
  increase in HIV transcription compared to untreated controls: 12 fold
[3]; Na-Cro alone, AR12 experiment (FIG. 3, panel D)
  HIV reactivation compared to the control: 8 fold
